In US6737383B1, “Herbicidal oxadiazolidines” (priority 1999, dated 2004):

Assays:
[1] = tested on: bedstraw; assay: Test B pre/postemergence bedstraw; type: in vivo, Galium aparine
How it was run: (§1)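 Test chemicals in a non-phytotoxic solvent mixture with surfactant were sprayed preemergence onto planted seeds and postemergence onto plants 2 to 18 cm tall (1- to 4-leaf stage). After twelve to sixteen days in a greenhouse, injury was visually rated against untreated controls from 0 (no effect) to 10 (complete control).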

[2] = tested on: blackgrass; assay: Test B pre/postemergence blackgrass; type: in vivo, Alopecurus myosuroides
How it was run: as §1

[3] = tested on: surinam grass; assay: Test B pre/postemergence surinam grass; type: in vivo, Brachiaria decumbens
How it was run: as §1

[4] = tested on: cocklebur; assay: Test B pre/postemergence cocklebur; type: in vivo, Xanthium strumarium
How it was run: as §1

[5] = tested on: corn; assay: Test B pre/postemergence corn; type: in vivo, Zea mays
How it was run: as §1

[6] = tested on: crabgrass; assay: Test B pre/postemergence crabgrass; type: in vivo, Digitaria sanguinalis
How it was run: as §1

[7] = tested on: giant foxtail; assay: Test B pre/postemergence giant foxtail; type: in vivo, Setaria faberii
How it was run: as §1

[8] = tested on: morningglory; assay: Test B pre/postemergence morningglory; type: in vivo, Ipomoea hederacea
How it was run: as §1

[9] = tested on: pigweed; assay: Test B pre/postemergence pigweed; type: in vivo, Amaranthus retroflexus
How it was run: as §1

[10] = tested on: rape; assay: Test B pre/postemergence rape; type: in vivo, Brassica napus
How it was run: as §1

[11] = tested on: soybean; assay: Test B pre/postemergence soybean; type: in vivo, Glycine max
How it was run: as §1

[12] = tested on: velvetleaf; assay: Test B pre/postemergence velvetleaf; type: in vivo, Abutilon theophrasti
How it was run: as §1

[13] = tested on: wheat; assay: Test B pre/postemergence wheat; type: in vivo, Triticum aestivum
How it was run: as §1

[14] = tested on: wild oat; assay: Test B pre/postemergence wild oat; type: in vivo, Avena fatua
How it was run: as §1

[15] = tested on: purple nutsedge; assay: Test B pre/postemergence purple nutsedge; type: in vivo, Cyperus rotundus
How it was run: as §1

[16] = Preemergence, Rate 62 g/ha, scale 0 to 10 (0 no effect, 10 complete control)
[17] = Preemergence, Rate 125 g/ha, 0 is no effect, 10 is complete control
[18] = Preemergence, Rate 250 g/ha, scale 0 to 10, 0 is no effect, 10 is complete control
[19] = Preemergence, Rate 500 g/ha, scale 0 to 10 (0 no effect, 10 complete control)
[20] = Rate 500 g/ha, Postemergence, scale 0 to 10, 0 no effect, 10 complete control
[21] = Postemergence, Rate 125 g/ha, scale of 0 to 10 where 0 is no effect and 10 is complete control
[22] = Rate 62 g/ha, Postemergence, scale of 0 to 10 where 0 is no effect and 10 is complete control
[23] = Rate 250 g/ha, Postemergence, scale 0 to 10, 0 is no effect, 10 is complete control

CC(C)N(C(=O)n1oc(=O)n(-c2ccnn2C)c1=O)c1ccc(F)cc1 [Compound 124]
Bedstraw plant response rating [1, 16]: 0
Bedstraw plant response rating (0 to 10 scale) [1, 17]: 0
Bedstraw plant response rating [1, 18]: 0
Bedstraw plant response rating [1, 19]: 0
Bedstraw plant response rating [1, 20]: 0
Blackgrass plant response rating [2, 21]: 0
Blackgrass plant response rating [2, 16]: 0
Blackgrass plant response rating (0 to 10 scale) [2, 17]: 0
Blackgrass plant response rating [2, 18]: 0
Blackgrass plant response rating [2, 19]: 0
Blackgrass plant response rating [2, 22]: 0
Plant response rating, Blackgrass [2, 23]: 0
Blackgrass plant response rating [2, 20]: 0
B. signalgrass plant response rating ([3]; Postemergence, Rate 62 g/ha, scale 0 to 10, 0 is no effect, 10 is complete control): 0
B. signalgrass plant response rating [3, 21]: 0
B. signalgrass plant response rating [3, 16]: 0
B. signalgrass plant response rating (0 to 10 scale) [3, 17]: 0
B. signalgrass plant response rating [3, 18]: 0
B. signalgrass plant response rating [3, 19]: 0
Plant response rating, B. signalgrass [3, 23]: 0
B. signalgrass plant response rating ([3]; Rate 500 g/ha, Postemergence, scale of 0 to 10 where 0 is no effect and 10 is complete control): 0
Cocklebur plant response rating [4, 21]: 0
Cocklebur plant response rating [4, 16]: 0
Cocklebur plant response rating [4, 18]: 0
Cocklebur plant response rating [4, 19]: 0
Cocklebur plant response rating [4, 22]: 0
Plant response rating, Cocklebur [4, 23]: 0
Cocklebur plant response rating [4, 20]: 0
Corn plant response rating [5, 21]: 0
Corn plant response rating [5, 16]: 0
Corn plant response rating (0 to 10 scale) [5, 17]: 0
Corn plant response rating [5, 18]: 0
Corn plant response rating [5, 19]: 0
Corn plant response rating [5, 22]: 0
Plant response rating, Corn [5, 23]: 0
Corn plant response rating [5, 20]: 0
Crabgrass plant response rating [6, 21]: 0
Crabgrass plant response rating [6, 16]: 0
Crabgrass plant response rating (0 to 10 scale) [6, 17]: 0
Crabgrass plant response rating [6, 18]: 0
Crabgrass plant response rating [6, 19]: 0
Crabgrass plant response rating [6, 22]: 0
Plant response rating, Crabgrass [6, 23]: 0
Crabgrass plant response rating [6, 20]: 0
Giant foxtail plant response rating [7, 21]: 0
Giant foxtail plant response rating [7, 16]: 0
Giant foxtail plant response rating (0 to 10 scale) [7, 17]: 0
Giant foxtail plant response rating [7, 18]: 0
Giant foxtail plant response rating [7, 19]: 0
Giant foxtail plant response rating [7, 22]: 0
Plant response rating, Giant foxtail [7, 23]: 0
Giant foxtail plant response rating [7, 20]: 0
Morningglory plant response rating [8, 21]: 0
Morningglory plant response rating [8, 16]: 0
Morningglory plant response rating (0 to 10 scale) [8, 17]: 0
Morningglory plant response rating [8, 18]: 0
Morningglory plant response rating [8, 19]: 0
Morningglory plant response rating [8, 22]: 0
Plant response rating, Morningglory [8, 23]: 0
Morningglory plant response rating [8, 20]: 2
Redroot pigweed plant response rating [9, 21]: 0
Redroot pigweed plant response rating [9, 16]: 0
Redroot pigweed plant response rating (0 to 10 scale) [9, 17]: 0
Redroot pigweed plant response rating [9, 18]: 0
Redroot pigweed plant response rating [9, 19]: 0
Redroot pigweed plant response rating [9, 22]: 0
Plant response rating, Redroot pigweed [9, 23]: 0
Redroot pigweed plant response rating [9, 20]: 0
Rape plant response rating [10, 21]: 0
Rape plant response rating [10, 16]: 0
Rape plant response rating (0 to 10 scale) [10, 17]: 0
Rape plant response rating [10, 18]: 0
Rape plant response rating [10, 19]: 0
Rape plant response rating [10, 22]: 0
Plant response rating, Rape [10, 23]: 0
Rape plant response rating [10, 20]: 0
Soybean plant response rating [11, 21]: 3
Soybean plant response rating [11, 16]: 0
Soybean plant response rating (0 to 10 scale) [11, 17]: 0
Soybean plant response rating [11, 18]: 0
Soybean plant response rating [11, 19]: 0
Soybean plant response rating [11, 22]: 0
Plant response rating, Soybean [11, 23]: 4
Soybean plant response rating [11, 20]: 5
Velvetleaf plant response rating [12, 21]: 0
Velvetleaf plant response rating [12, 16]: 0
Velvetleaf plant response rating (0 to 10 scale) [12, 17]: 0
Velvetleaf plant response rating [12, 18]: 0
Velvetleaf plant response rating [12, 19]: 0
Velvetleaf plant response rating [12, 22]: 0
Plant response rating, Velvetleaf [12, 23]: 0
Velvetleaf plant response rating [12, 20]: 0
Wheat plant response rating [13, 21]: 0
Wheat plant response rating [13, 16]: 0
Wheat plant response rating (0 to 10 scale) [13, 17]: 0
Wheat plant response rating [13, 18]: 0
Wheat plant response rating [13, 19]: 0
Wheat plant response rating [13, 22]: 0
Plant response rating, Wheat [13, 23]: 0
Wheat plant response rating [13, 20]: 0
Wild oats plant response rating [14, 21]: 0
Wild oats plant response rating [14, 16]: 0
Wild oats plant response rating (0 to 10 scale) [14, 17]: 0
Wild oats plant response rating [14, 18]: 0
Wild oats plant response rating [14, 19]: 0
Wild oats plant response rating [14, 22]: 0
Plant response rating, Wild oats [14, 23]: 0
Wild oats plant response rating [14, 20]: 0
Nutsedge plant response rating [15, 21]: 0
Nutsedge plant response rating [15, 16]: 0
Nutsedge plant response rating (0 to 10 scale) [15, 17]: 0
Nutsedge plant response rating [15, 18]: 0
Nutsedge plant response rating [15, 19]: 0
Nutsedge plant response rating [15, 22]: 0
Plant response rating, Nutsedge [15, 23]: 0
Nutsedge plant response rating [15, 20]: 0
